# Activity calls are given as the source filed them. No cut-off for these calls is given here.
# Experiments:
# [1] = test system: PA-1; assay: Antiproliferative activity against human PA-1 cells assessed as reduction in cell viability incubated for 72 hrs by Cell-TiterGlo assay; assay type: functional, cell-based; conditions: PA-1, 72 h
# [2] = biological target: T1, Pyruvate kinase PKM (Homo sapiens, UniProt P14618); assay: Inhibition of human PKM2 assessed as ATP production incubated for 10 mins by Celltiter-glo luminescent analysis
# Target sequence in this assay (P14618 whole entry): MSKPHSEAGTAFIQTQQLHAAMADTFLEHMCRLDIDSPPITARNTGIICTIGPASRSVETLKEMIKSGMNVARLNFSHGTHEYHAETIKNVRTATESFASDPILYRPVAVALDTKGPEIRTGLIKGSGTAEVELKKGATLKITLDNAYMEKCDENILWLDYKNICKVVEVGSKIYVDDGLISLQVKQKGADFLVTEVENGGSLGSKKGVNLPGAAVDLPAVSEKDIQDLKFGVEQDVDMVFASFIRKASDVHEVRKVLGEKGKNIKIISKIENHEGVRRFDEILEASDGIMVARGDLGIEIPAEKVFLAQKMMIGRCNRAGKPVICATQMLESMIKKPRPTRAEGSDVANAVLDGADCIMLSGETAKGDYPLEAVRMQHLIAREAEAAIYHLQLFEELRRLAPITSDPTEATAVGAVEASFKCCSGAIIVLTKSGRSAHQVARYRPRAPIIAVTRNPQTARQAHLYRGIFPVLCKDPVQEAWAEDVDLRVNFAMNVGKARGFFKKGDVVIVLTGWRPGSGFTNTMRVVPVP
# [3] = biological target: T1, Pyruvate kinase PKM; assay: Inhibition of human PKM2 assessed as ATP production incubated for 10 mins in presence of beta-mercaptoethanol by Celltiter-glo luminescent analysis
# Target sequence in this assay (P14618 whole entry): as above
# [4] = test system: A2780; assay: Antiproliferative activity against human A2780 cells assessed as reduction in cell viability incubated for 72 hrs by Cell-TiterGlo assay; assay type: functional, cell-based; conditions: A2780, 72 h
# [5] = test system: SK-OV-3; assay: Antiproliferative activity against human SK-OV-3 cells assessed as reduction in cell viability incubated for 72 hrs by Cell-TiterGlo assay; assay type: functional, cell-based; conditions: SK-OV-3, 72 h
# [6] = biological target: T1, Pyruvate kinase PKM; assay: Binding affinity to PKM2 in human PA-1 cells assessed as target engagement of protein at 10 uM silver staining based […] gel electrophoresis analysis; assay type: cell-based
# Target sequence in this assay (P14618 2-531 limits assumed): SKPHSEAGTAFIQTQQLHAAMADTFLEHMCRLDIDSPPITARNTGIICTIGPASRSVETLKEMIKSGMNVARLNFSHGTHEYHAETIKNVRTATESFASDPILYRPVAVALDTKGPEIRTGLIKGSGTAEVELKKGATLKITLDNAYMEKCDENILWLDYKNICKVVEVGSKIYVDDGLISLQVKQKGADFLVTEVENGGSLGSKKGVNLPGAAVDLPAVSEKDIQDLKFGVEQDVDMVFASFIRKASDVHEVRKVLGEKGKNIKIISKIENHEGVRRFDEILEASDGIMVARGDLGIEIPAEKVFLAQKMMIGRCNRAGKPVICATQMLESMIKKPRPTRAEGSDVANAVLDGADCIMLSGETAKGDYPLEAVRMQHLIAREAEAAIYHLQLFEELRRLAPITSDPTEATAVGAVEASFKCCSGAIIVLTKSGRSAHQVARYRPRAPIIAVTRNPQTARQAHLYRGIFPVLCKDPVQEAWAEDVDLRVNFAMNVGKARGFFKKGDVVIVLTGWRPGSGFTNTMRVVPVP
# [7] = biological target: T1, Pyruvate kinase PKM; assay: Binding affinity to PKM2 in human HeLa cells assessed as nuclear translocation at 0.5 uM measured for 24 hrs by DAPI staining based immunofluorescence analysis; assay type: cell-based
# Target sequence in this assay (P14618 2-531 limits assumed): as above
# [8] = biological target: T1, Pyruvate kinase PKM; assay: Binding affinity to PKM2 in human PA-1 cells at 10 uM pretreated for 6 hrs followed by pulldown using streptavidin agarose resin by Western blot analysis; assay type: cell-based
# Target sequence in this assay (P14618 2-531 limits assumed): as above
# [9] = biological target: Pyruvate kinase PKM (Homo sapiens, UniProt P14618, C474S); assay: Binding affinity to PKM2 C474S mutant in human PA-1 cells measured for 72 hrs; assay type: cell-based
# [10] = biological target: T1, Pyruvate kinase PKM; assay: Inhibition of human PKM1 assessed as ATP production incubated for 10 mins by Celltiter-glo luminescent analysis
# Target sequence in this assay (P14618 whole entry): as the sequence (P14618 whole entry) above
# [11] = biological target: T1, Pyruvate kinase PKM; assay: Binding affinity to PKM2 in human SK-OV-3 cells at 10 uM pretreated for 6 hrs followed by pulldown using streptavidin agarose resin by Western blot analysis; assay type: cell-based
# Target sequence in this assay (P14618 2-531 limits assumed): as the sequence (P14618 2-531 limits assumed) above
# [12] = biological target: T1, Pyruvate kinase PKM; assay: Binding affinity to PKM2 in human PA-1 cells assessed as thermal stabilization at 2 uM measured for 6 hrs by cellular thermal shift assay; assay type: cell-based
# Target sequence in this assay (P14618 2-531 limits assumed): as above
# [13] = biological target: T1, Pyruvate kinase PKM; assay: Binding affinity to wild type FLAG-tagged PKM2 in human PA-1 cells measured for 72 hrs; assay type: cell-based
# Target sequence in this assay (P14618 whole entry): as the sequence (P14618 whole entry) above
# [14] = biological target: Pyruvate kinase PKM (Homo sapiens, UniProt P14618, C474A); assay: Binding affinity to PKM2 C474A mutant in human PA-1 cells measured for 72 hrs; assay type: cell-based
# [15] = biological target: T1, Pyruvate kinase PKM; assay: Binding affinity to PKM2 in human SK-OV-3 cells assessed as thermal stabilization at 2 uM measured for 6 hrs by cellular thermal shift assay; assay type: cell-based
# Target sequence in this assay (P14618 2-531 limits assumed): as the sequence (P14618 2-531 limits assumed) above
# [16] = biological target: T1, Pyruvate kinase PKM; assay: Binding affinity to human PKM1 in HEK-293T by measuring pulldown using streptavidin agarose resin preincubated for 18 hrs followed by streptavidin pulldown for 18 hrs by silver staining based immunoblotting analysis; assay type: cell-based; conditions: time 36.0 hrs
# [17] = test system: SK-OV-3; assay: Inhibition of PKM2 knockdown in human SK-OV-3 cells assessed as AMPK phosphorylation level at 3 uM incubated for 6 to 12 hrs by Western blotting analysis; assay type: functional, cell-based; conditions: time 6-12 hrs
# [18] = Toxicity in BALB/c mouse assessed as adverse effects at 50 mg/kg, po qd measured after 2 weeks; assay type: organism-based; conditions: in vivo, 336 h
# [19] = test system: HEY; assay: Antitumor activity against human HEY cells xenografted in BALB/c nude mouse model assessed as reduction average tumor volume by measuring fold change at 50 mg/kg, po qd by caliper analysis; assay type: functional
# [20] = biological target: T1, Pyruvate kinase PKM; assay: Inhibition of PKM2 in human PA-1 cells assessed as reduction in cyclin D1 phosphorylation level at 3 uM incubated for 6 to 12 hrs by Western blotting analysis; assay type: cell-based; conditions: time 6-12 hrs
# [21] = test system: SK-OV-3; assay: Inhibition of PKM2 knockdown in human SK-OV-3 cells assessed as c-MYC phosphorylation level at 3 uM incubated for 6 to 12 hrs by Western blotting analysis; assay type: functional, cell-based; conditions: time 6-12 hrs
# [22] = test system: HEY; assay: Antitumor activity against human HEY cells xenografted in BALB/c nude mouse model assessed as reduction in total tumor weight by measuring fold change at 50 mg/kg, po qd; assay type: functional
# [23] = biological target: T1, Pyruvate kinase PKM; assay: Inhibition of PKM2 in human PA-1 cells assessed as effect on ERK1/2 phosphorylation level at 3 uM incubated for 6 to 12 hrs by Western blotting analysis; assay type: cell-based; conditions: time 6-12 hrs
# [24] = biological target: T1, Pyruvate kinase PKM; assay: Inhibition of PKM2 in human PA-1 cells assessed as reduction in LDH level at 5 uM measured after 3 hrs by Western blot analysis; assay type: cell-based
# [25] = test system: HEY; assay: Antitumor activity against human HEY cells xenografted in BALB/c nude mouse model assessed as reduction of tumor burden at 50 mg/kg, po qd; assay type: functional, organism-based
# [26] = test system: PA-1; assay: Antiproliferative activity against human PKM2 knockdown PA-1 cells assessed as reduction in cell viability incubated after 96 hrs by Cell-TiterGlo assay; assay type: functional, cell-based
# [27] = biological target: T1, Pyruvate kinase PKM; assay: Inhibition of PKM2 in human PA-1 cells assessed as effect on STAT3 phosphorylation level at 3 uM incubated for 6 to 12 hrs by Western blotting analysis; assay type: cell-based; conditions: time 6-12 hrs
# [28] = biological target: T1, Pyruvate kinase PKM; assay: Inhibition of PKM2 in human SK-OV-3 cells assessed as decrease in extracellular acidification rate at 5 uM measured for 12 hrs by Seahorse XF96 extracellular flux analyzer; assay type: cell-based
# [29] = biological target: T1, Pyruvate kinase PKM; assay: Inhibition of PKM2 in human PA-1 cells assessed as increase in ADP/ATP ratio at 5 uM measured for 12 hrs by LC-MS analysis; assay type: cell-based
# [30] = test system: SK-OV-3; assay: Antiproliferative activity against human PKM2 knockdown SK-OV-3 cells assessed as reduction in cell viability incubated after 96 hrs by Cell-TiterGlo assay; assay type: functional, cell-based
# [31] = Toxicity in BALB/c mouse assessed as change in body weight at 50 mg/kg, po qd measured after 2 weeks; assay type: organism-based; conditions: in vivo, 336 h
# [32] = biological target: T1, Pyruvate kinase PKM; assay: Inhibition of PKM2 in human PA-1 cells assessed as effect on AKT phosphorylation level at 3 uM incubated for 6 to 12 hrs by Western blotting analysis; assay type: cell-based; conditions: time 6-12 hrs
# [33] = biological target: T1, Pyruvate kinase PKM; assay: Inhibition of PKM2 in human PA-1 cells assessed as increase in extracellular acidification rate at 1 to 5 uM measured for 12 hrs by Seahorse XF96 extracellular flux analyzer; assay type: cell-based; conditions: dose 1-5 µM
# [34] = biological target: T1, Pyruvate kinase PKM; assay: Inhibition of PKM2 in human PA-1 cells assessed as reduction in c-MYC phosphorylation level at 3 uM incubated for 6 to 12 hrs by Western blotting analysis; assay type: cell-based; conditions: time 6-12 hrs
# [35] = biological target: T1, Pyruvate kinase PKM; assay: Inhibition of PKM2 in human PA-1 cells assessed as reduction pyruvate level at 5 uM measured for 12 hrs by LC-MS analysis; assay type: cell-based
# [36] = biological target: T1, Pyruvate kinase PKM; assay: Binding affinity to human PKM2 in HEK-293T by measuring pulldown using streptavidin agarose resin preincubated for 18 hrs followed by streptavidin pulldown for 18 hrs by silver staining based immunoblotting analysis; assay type: cell-based; conditions: time 36.0 hrs
# Pyruvate kinase PKM (Homo sapiens, UniProt P14618, C474A), sequence (P14618 2-531 C474A limits assumed): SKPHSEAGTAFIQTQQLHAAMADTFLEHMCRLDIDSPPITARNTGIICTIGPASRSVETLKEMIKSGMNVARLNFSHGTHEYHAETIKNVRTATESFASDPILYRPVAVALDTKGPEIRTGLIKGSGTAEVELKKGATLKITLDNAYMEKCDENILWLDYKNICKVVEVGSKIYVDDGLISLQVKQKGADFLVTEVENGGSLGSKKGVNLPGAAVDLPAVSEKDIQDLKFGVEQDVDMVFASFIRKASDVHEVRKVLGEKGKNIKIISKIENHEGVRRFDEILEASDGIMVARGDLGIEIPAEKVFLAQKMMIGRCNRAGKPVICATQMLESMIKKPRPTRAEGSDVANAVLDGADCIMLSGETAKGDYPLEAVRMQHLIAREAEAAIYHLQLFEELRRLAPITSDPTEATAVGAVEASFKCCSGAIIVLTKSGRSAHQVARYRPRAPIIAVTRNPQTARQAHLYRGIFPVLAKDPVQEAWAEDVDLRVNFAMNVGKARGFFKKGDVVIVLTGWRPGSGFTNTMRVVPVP
# Pyruvate kinase PKM (Homo sapiens, UniProt P14618, C474S), sequence (P14618 2-531 C474S limits assumed): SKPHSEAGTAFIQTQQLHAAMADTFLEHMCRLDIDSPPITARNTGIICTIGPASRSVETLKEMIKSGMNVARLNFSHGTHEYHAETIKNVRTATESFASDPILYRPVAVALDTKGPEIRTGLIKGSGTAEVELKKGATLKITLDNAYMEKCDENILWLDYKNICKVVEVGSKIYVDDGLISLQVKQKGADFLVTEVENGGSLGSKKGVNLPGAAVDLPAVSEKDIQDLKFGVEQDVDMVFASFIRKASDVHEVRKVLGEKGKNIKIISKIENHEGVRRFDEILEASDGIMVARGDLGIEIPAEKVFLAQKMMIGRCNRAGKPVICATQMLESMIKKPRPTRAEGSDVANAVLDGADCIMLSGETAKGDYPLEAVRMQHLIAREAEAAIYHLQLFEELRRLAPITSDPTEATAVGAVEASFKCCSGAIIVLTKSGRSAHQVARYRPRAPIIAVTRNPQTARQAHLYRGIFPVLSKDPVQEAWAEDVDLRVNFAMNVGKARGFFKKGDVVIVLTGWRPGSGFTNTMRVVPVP
smiles,measurement,setting,value
CCN1CCC(CN(C(=O)[C@@H]2CCN(Cc3ccccc3)C2)c2ccc(B(O)O)cc2)CC1,IC50,[1],> 10 µM
same,IC50,[2],> 10 µM
same,IC50,[3],> 10 µM
same,IC50,[4],> 10 µM
same,IC50,[5],> 10 µM
O=C(CCCC[C@H]1SC[C@H]2NC(=O)N[C@H]21)NCCOCCOCCOCCOCC(=O)Nc1ccc([As](O)O)cc1,Activity,[6],Active
same,IC50,[2],0.23 µM
same,IC50,[3],1.03 µM
O=C(CCCC[C@H]1SC[C@H]2NC(=O)N[C@H]21)NCCOCCOCCOCCOCC(=O)Nc1ccc([As]2SCCS2)cc1,Activity,[6],inactive
CCN1CCC(CN(C(=O)[C@H]2CCN(Cc3ccccc3)C2)c2ccc([As](O)O)cc2)CC1,IC50,[2],0.671 µM
same,IC50,[3],2.14 µM
CC1=CC(C)=[N+]2C1=C(CCCC(=O)N1CCC(CN(C(=O)[C@@H]3CCN(Cc4ccccc4)C3)c3ccc([As]4SCCS4)cc3)CC1)c1c(C)cc(C)n1[B-]2(F)F,Activity,[7],Active
CC(C)=CC[C@@H](O)C1=CC(=O)c2c(O)ccc(O)c2C1=O [SHIKONIN],Activity,[8],Active
same,IC50,[9],0.326 µM
same,IC50,[10],1.52 µM
same,IC50,[1],0.92 µM
same,Activity,[11],Active
same,IC50,[2],2.58 µM
same,Activity,[12],inactive
same,IC50,[3],> 10 µM
same,IC50,[13],0.301 µM
same,IC50,[14],0.381 µM
same,IC50,[4],0.39 µM
same,Activity,[15],inactive
same,IC50,[5],3.46 µM
O=C(CCCC[C@H]1SC[C@H]2NC(=O)N[C@H]21)NCCOCCOCCOCCN1CCC(CN(C(=O)[C@@H]2CCN(Cc3ccccc3)C2)c2ccc([As]3SCCS3)cc2)CC1,Activity,[8],inactive
same,Activity,[11],inactive
same,Activity,[16],inactive
CCN1CCC(CN(C(=O)[C@H]2CCN(Cc3ccccc3)C2)c2ccc([As]3SCCS3)cc2)CC1,IC50,[1],0.1 µM
same,IC50,[4],0.11 µM
same,IC50,[5],0.13 µM
CN1CC[C@@H](C(=O)N(Cc2ccccc2)c2ccc([As](O)O)cc2)C1,IC50,[2],0.285 µM
same,IC50,[3],1.79 µM
COc1ccc([As](O)O)cc1NC(=O)COCCOCCOCCOCCNC(=O)CCCC[C@H]1SC[C@H]2NC(=O)N[C@H]21,IC50,[2],0.999 µM
same,IC50,[3],1.28 µM
O=C(CCCC[C@H]1SC[C@H]2NC(=O)N[C@H]21)NCCOCCOCCOCCOCC(=O)Nc1ccc(B(O)O)cc1,IC50,[2],> 10 µM
same,IC50,[3],> 10 µM
CCN1CCC(CN(C(=O)[C@@H]2CCN(Cc3ccccc3)C2)c2ccc([As]3SCCS3)cc2)CC1,inhibition,[17],Active
same,Activity,[18],Non-Toxic
same,fold change (FC),[19],2
same,inhibition,[20],Active
same,IC50,[9],0.093 µM
same,inhibition,[21],inactive
same,fold change (FC),[22],>3
same,inhibition,[23],inactive
same,IC50,[1],0.16 µM
same,inhibition,[24],inactive
same,Activity,[25],Active
same,Activity,[26],inactive
same,inhibition,[27],inactive
same,inhibition,[28],Active
same,IC50,[2],> 10 µM
same,inhibition,[29],Active
same,Activity,[30],Active
same,Activity,[12],inactive
same,Activity,[31],Non-Toxic
same,IC50,[3],> 10 µM
same,IC50,[13],0.016 µM
same,IC50,[14],0.129 µM
same,inhibition,[32],inactive
same,inhibition,[33],inactive
same,inhibition,[34],Active
same,IC50,[4],0.23 µM
same,Activity,[15],inactive
same,inhibition,[35],Active
same,IC50,[5],> 10 µM
O=C([C@@H]1CCN(Cc2ccccc2)C1)N(Cc1ccccc1)c1ccc([As](O)O)cc1,IC50,[2],0.326 µM
same,IC50,[3],1.49 µM
O=C(CCCC[C@H]1SC[C@H]2NC(=O)N[C@H]21)NCCOCCOCCOCCN1CCC(CN(C(=O)[C@@H]2CCN(Cc3ccccc3)C2)c2ccc([As](O)O)cc2)CC1,Activity,[36],Active
same,Activity,[16],inactive
CN1CC[C@@H](C(=O)Nc2ccc([As](O)O)cc2)C1,IC50,[1],0.48 µM
same,IC50,[2],0.139 µM
same,IC50,[3],0.586 µM
same,IC50,[4],0.34 µM
same,IC50,[5],0.28 µM
CCN1CCC(CN(C(=O)[C@@H]2CCN(Cc3ccccc3)C2)c2ccc([As](O)O)cc2)CC1,Activity,[8],Active
same,IC50,[1],> 10 µM
same,Activity,[11],Active
same,IC50,[2],0.122 µM
same,IC50,[3],0.25 µM
same,IC50,[4],> 10 µM
same,IC50,[5],> 10 µM
